Measured values taken from PubChem BioAssay AID588618 (The Scripps Research Institute Molecular Screening Center, 2011).

target: Early growth response protein 1 (Homo sapiens) (UniProt P18146); test: EGR1 protein level change in DLD-1 cells, late-stage follow-up, counter-screen for KLF5 inhibitor project, DLD1 cells, chemiluminescent western blot, powder samples (AID 588618); details: 24 h, at 10 µM, stronger effect = higher value
Sequence (P18146 whole entry, looked up): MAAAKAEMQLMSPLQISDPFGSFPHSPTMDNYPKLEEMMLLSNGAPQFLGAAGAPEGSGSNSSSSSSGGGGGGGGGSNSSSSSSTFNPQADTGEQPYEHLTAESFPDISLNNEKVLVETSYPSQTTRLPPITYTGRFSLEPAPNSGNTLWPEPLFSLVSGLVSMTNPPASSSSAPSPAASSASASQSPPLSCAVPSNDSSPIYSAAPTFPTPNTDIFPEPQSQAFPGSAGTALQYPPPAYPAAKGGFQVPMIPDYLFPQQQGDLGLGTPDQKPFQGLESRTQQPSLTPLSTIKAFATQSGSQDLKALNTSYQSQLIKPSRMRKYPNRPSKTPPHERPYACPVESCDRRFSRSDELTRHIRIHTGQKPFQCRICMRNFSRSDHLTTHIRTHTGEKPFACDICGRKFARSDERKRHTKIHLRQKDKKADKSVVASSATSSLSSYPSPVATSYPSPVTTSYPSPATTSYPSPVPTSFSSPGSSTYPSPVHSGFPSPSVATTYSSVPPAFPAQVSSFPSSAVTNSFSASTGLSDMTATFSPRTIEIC

| inhibition [%] | SMILES |
| --- | --- |
| 14.3 | CN(C(=O)CNC(=O)/C=C/c1cccc(Cl)c1)C1CCS(=O)(=O)C1 (stereo not drawn) |
| 19.4 | CN(C(=O)COC(=O)/C=C/c1cccc([N+](=O)[O-])c1)C1CCS(=O)(=O)C1 (stereo not drawn) |
| 21.1 | CN(C(=O)CNC(=O)/C=C/c1cccc(Cl)c1)C1CCS(=O)(=O)CC1 |
